Experimental data taken from US10028992B2, “Methods of treating muscular dystrophy” (BOARD OF REGENTS OF THE NEVADA SYSTEM OF HIGHER EDUCATION …, priority 2012, dated 2018).
Like-named read-outs stand apart in the source and are kept apart here.

Test system: α7 integrin promoter
Assay: muscle cell-based assay: α7βgal+/− myoblasts/myotubes, LacZ reporter, β-galactosidase cleavage of FDG
Design: species or system mouse
Conditions: for EC50: Mus musculus, read-out: Fit LogAC50 (converted)
Description: An α7 integrin null mouse was produced in which exon 1 of the gene encoding the α7 integrin was replaced by the LacZ reporter. In these mice, all the transcriptional regulatory elements of the α7 integrin promoter were retained, allowing β-galactosidase to report expression of 7 integrin. A primary myoblast cell line (designated α7βgal^+/−) isolated from 10 day old α7^+/− pups were analyzed for the ability of β-galactosidase to report α7 integrin expression. α7βgal^+/− myoblasts were differentiated and subjected to X-gal staining and western analysis (FIGS. 1A and 1B).
The activity of the α7 integrin promoter was measured by β-galactosidase cleavage of the non-fluorescent compound fluorescein di-β-D-galactopyranoside (FDG) to fluorescein. This assay was used to screen compound libraries to identify molecules that up-regulate α7 integrin expression in muscle.
Also evaluated was the effect of various isoforms of laminin and the ligand for α7β1 integrin on integrin expression. Positive hits were subjected to dose-response analysis, western analysis and a myostatin counterscreen (a negative regulator of muscle growth).

[1] = given as log AC50 (negative values)
[2] = curve class number, key not given
[3] = curve fit, activity at zero concentration

Compound	EC50 [1] [µM]	Score (Table 12 compound data)	Fit Curve Class [2]	Fit HillSlope (curve fit)	Fit Zero Activity [%] [3] [%]	Fit Curve Class	Fit HillSlope	Fit Zero Activity [%]	Score	EC50 [µM]
COCCN1C=C(C(=O)OC)C(c2ccccc2Cl)C(C(=O)OC)=C1 [Compound 123]	8.91	43	2.1	1.3443	3.9836					
O=C(NCCCn1ccnc1)/C(=C/c1cccs1)NC(=O)c1ccco1 [Compound 124]	8.91	43	2.1	1.2475	−20.4393					
N=C(NOC(=O)COc1cc(Cl)c(Cl)cc1Cl)c1ccncc1 [Compound 125]	11.2	43	2.1	1.1705	−2.6906					
Cc1ccc(-c2csc(Nc3ccc(C(=O)O)cc3)[n+]2Cc2ccccc2)cc1.[Br-] [Compound 126]	8.91	43	2.1	1	0.673					
Cc1cc(-c2ccccc2)n2nc(N)nc2n1 [Compound 127]	12.6	43	2.1	4.5045	−18.9102					
O=C(N/N=C/c1cn[nH]c1-c1ccc(F)cc1)c1ccncc1 [Compound 128]	14.1	43	2.1	4.5045	14.6735					
CC(/C=C(\O)c1ccccc1)=N\c1ccc(Br)c(Cl)c1 [Compound 130]	11.2	43	2.1	4.5045	7.8122					
Cc1ccc(NC(=O)COc2ccccc2CNC(C)(C)CC(C)(C)C)cc1 [Compound 131]	14.1	43	2.1	4.9549	8.7591					
Cc1nc2c([nH]1)OC(N)=C(C#N)C21CCN(Cc2ccccc2)CC1 [Compound 132]						2.1	4.9549	12.8108	43	12.6
O=C(CSc1nnc(C2CC2)n1C1CC1)c1cccs1 [Compound 133]	10	42	2.1	2.7202	−27.5656					
CSc1ncccc1C(=O)OCC(=O)c1cc(C)n(C)c1C [Compound 134]	10	42	2.1	4.4495	−22.5632					
CCc1c(C2(O)CCCCC2)[nH]c2ncccc12 [Compound 135]	10	42	2.1	4.9549	−29.3022					
O=C(Nc1ccc(S(=O)(=O)Nc2nccs2)cc1)c1ccccc1OC(F)F [Compound 137]	10	42	2.1	4.9549	−19.2861					
O=C1CCc2cc(S(=O)(=O)Nc3ccc(C(F)(F)F)cc3)cc3c2N1CC3 [Compound 138]	11.2	42	2.1	1.3437	−27.3652					
COc1ccccc1C(=O)NCC(=O)/N=N/c1c(O)n(C(C)C)c2ccccc12 [Compound 139]	11.2	42	2.1	4.5045	14.712					
Cn1ccc(C(=O)Nc2cccnc2Cl)n1 [Compound 140]	10	42	2.2	2.7868	−4.0391					
COC(=O)c1ccc(C2C(C(=O)c3cc4ccccc4o3)=C(O)C(=O)N2CCN2CCOCC2)cc1 (centres unmarked) [Compound 141]	10	42	2.1	4.9549	−17.8968					
COc1cc(NC(=O)C2C3C=CC(C3)C2C(=O)O)ccc1NC(=O)c1ccccc1 (centres unmarked) [Compound 142]	8.91	42	2.1	2.4064	−18.7775					
COCc1c(C(=O)N/N=C(\C)c2ccc(OCc3ccccc3)cc2)nnn1-c1nonc1N [Compound 143]	10	42	2.1	4.4495	4.6719					
O=C(Nc1ccc(N2CCN(C(=O)c3ccccc3F)CC2)cc1)c1cncc(Br)c1 [Compound 144]	12.6	42	2.1	4.095	9.7776					
COc1cc(NC(=O)CN(C)S(=O)(=O)c2ccc3c(c2)CC(C)N3C(C)=O)cc(OC)c1OC (centres unmarked) [Compound 145]	10	42	2.2	4.9549	0.4668					
CC(=O)c1ccc(N(C(=O)CNC(=O)c2ccco2)C(C(=O)NC2CCCC2)c2ccc(C)o2)cc1 (centres unmarked) [Compound 146]	10	42	2.1	4.9549						
Cc1nnc(NC(=O)CSc2nnc(CCNC(=O)c3ccccc3F)n2C)s1 [Compound 147]	11.2	42	2.1	2.0937	1.0531					
COc1ccc(CCNC(=O)Cn2nnc(C(=O)Nc3ccc(Br)cc3)c2N)cc1OC [Compound 148]	11.2	42	2.1	2.3531	−28.7719					
C/C(=N\NC(=O)c1cc(C)oc1C)c1ccc2ccccc2c1 [Compound 149]	8.91	42	2.2	1.111	−1.9678					
CC(C)c1ccc(NC(=O)CN2C(=O)c3ccccc3S2(=O)=O)cc1 [Compound 150]	10	42	2.2	4.5045	−0.2112					
CCCCC(C(=O)NC1CCCC1)N(C(=O)c1snc(C(N)=O)c1N)c1ccc(C)cc1 (centres unmarked) [Compound 151]	10	42	2.1	3.132	−26.3814					
COc1ccc(S(=O)(=O)Nc2ccc(S(=O)(=O)Nc3nccs3)cc2)cc1 [Compound 152]	12.6	42	2.2	1.1341	−8.4801					
Cc1cc(C(=O)Nc2cccc3ccccc23)c(C)o1 [Compound 153]	7.94	42	2.1	1.5095	−21.2671					
CC1(C)Cc2c(cnn2-c2cccc(F)c2)C(NC(=O)CCc2cnccn2)C1 (centres unmarked) [Compound 154]	3.16	42	2.1	0.9	−46.353					
